Several values for one entry are separate records, joined by “and”; a condition that tells them apart may be missing. Equal values may be shown once. Toxic doses and inconclusive results are not listed.
System: L1210 leukemia ip in BDF1 mice, survival T/C
Experiment: NCI In Vivo Anticancer Drug Screen. Data for tumor model L1210 Leukemia (intraperitoneal) in B6D2F1 (BDF1) mice
Settings: endpoint: mean survival time, higher = longer survival
Procedure, shortened: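 Transplanted-tumor mice were given test agent; controls received vehicle only. Survival readings from the two groups were divided (treated over control).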

[1] = dose: 100.0 mg/kg/injection, schedule: Q01DX009 (ip), vehicle: Klucel (hydroxypropylcellulose) (HPC)
[2] = dose: 100.0 mg/kg/injection, schedule: Q04DX003 (ip), vehicle: Klucel (hydroxypropylcellulose) (HPC)
[3] = dose: 200.0 mg/kg/injection, schedule: Q01DX009 (ip), vehicle: Klucel (hydroxypropylcellulose) (HPC)
[4] = dose: 200.0 mg/kg/injection, schedule: Q04DX003 (ip), vehicle: Klucel (hydroxypropylcellulose) (HPC)
[5] = dose: 400.0 mg/kg/injection, schedule: Q01DX009 (ip), vehicle: Klucel (hydroxypropylcellulose) (HPC)
[6] = dose: 400.0 mg/kg/injection, schedule: Q04DX003 (ip), vehicle: Klucel (hydroxypropylcellulose) (HPC)
[7] = dose: 100.0 mg/kg/injection, schedule: Q01DX001 (ip), vehicle: saline
[8] = dose: 200.0 mg/kg/injection, schedule: Q01DX001 (ip), vehicle: saline
[9] = dose: 100.0 mg/kg/injection, schedule: Q01DX001 (ip), vehicle: carboxymethylcellulose (CMC)
[10] = dose: 100.0 mg/kg/injection, schedule: Q01DX009 (ip), vehicle: saline with Tween-80
[11] = dose: 100.0 mg/kg/injection, schedule: Q04DX003 (ip), vehicle: saline with Tween-80
[12] = dose: 200.0 mg/kg/injection, schedule: Q01DX009 (ip), vehicle: saline with Tween-80
[13] = dose: 200.0 mg/kg/injection, schedule: Q04DX003 (ip), vehicle: saline with Tween-80
[14] = dose: 400.0 mg/kg/injection, schedule: Q01DX009 (ip), vehicle: saline with Tween-80
[15] = dose: 400.0 mg/kg/injection, schedule: Q04DX003 (ip), vehicle: saline with Tween-80
[16] = dose: 50.0 mg/kg/injection, schedule: Q01DX001 (ip), vehicle: carboxymethylcellulose (CMC)
[17] = dose: 200.0 mg/kg/injection, schedule: Q01DX001 (ip), vehicle: carboxymethylcellulose (CMC)
[18] = dose: 400.0 mg/kg/injection, schedule: Q01DX001 (ip), vehicle: carboxymethylcellulose (CMC)
[19] = dose: 100.0 mg/kg/injection, schedule: Q01DX001 (ip), vehicle: saline with Tween-80
[20] = dose: 200.0 mg/kg/injection, schedule: Q01DX001 (ip), vehicle: saline with Tween-80
[21] = dose: 400.0 mg/kg/injection, schedule: Q01DX001 (ip), vehicle: saline with Tween-80
[22] = dose: 400.0 mg/kg/injection, schedule: Q01DX001 (ip), vehicle: saline
[23] = dose: 100.0 mg/kg/injection, schedule: Q01DX001 (ip), vehicle: other
[24] = dose: 200.0 mg/kg/injection, schedule: Q01DX001 (ip), vehicle: other
[25] = dose: 400.0 mg/kg/injection, schedule: Q01DX001 (ip), vehicle: other

Question: How did the T/C [1] turn out when `CCOC(=O)N1Cc2cc3ccccc3nc2C1CC(=O)O` (centres undefined) was run?
Answer: 104 % of control

Question: What about the T/C [2] of the same compound?
Answer: 105 % of control

Question: What about the T/C [3] of the same compound?
Answer: 98 % of control

Question: What about the T/C [4] of the same compound?
Answer: 88 % of control

Question: What about the T/C [5] of the same compound?
Answer: 102 % of control

Question: What about the T/C [6] of the same compound?
Answer: 96 % of control

Question: Which results are given for `COC1OC2COC(c3ccccc3)OC2C(OC)C1OC` (centres undefined)?
Answer: T/C (dose: 12.5 mg/kg/injection, schedule: Q04DX002 (ip), vehicle: Klucel (hydroxypropylcellulose) (HPC)): 100 % of control; T/C (dose: 25.0 mg/kg/injection, schedule: Q04DX002 (ip), vehicle: Klucel (hydroxypropylcellulose) (HPC)): 91 % of control; T/C (dose: 50.0 mg/kg/injection, schedule: Q04DX002 (ip), vehicle: Klucel (hydroxypropylcellulose) (HPC)): 103 % of control and 91 % of control; T/C (dose: 100.0 mg/kg/injection, schedule: Q04DX002 (ip), vehicle: Klucel (hydroxypropylcellulose) (HPC)): 108 % of control; T/C (dose: 200.0 mg/kg/injection, schedule: Q04DX002 (ip), vehicle: Klucel (hydroxypropylcellulose) (HPC)): 95 % of control

Question: What does the source list for `COc1cc2c(cc1OC)C(C(C)C)NCC2O` (centres undefined)?
Answer: T/C [7]: 98 % of control; T/C [8]: 96 % of control

Question: With `CC(C)CN(C)N=Nc1ccc(C(=N)N)cc1` as the compound, how does the T/C (dose: 5.0 mg/kg/injection, schedule: Q01DX001 (ip), vehicle: carboxymethylcellulose (CMC)) read?
Answer: 94 % of control

Question: What about the T/C (dose: 10.0 mg/kg/injection, schedule: Q01DX001 (ip), vehicle: carboxymethylcellulose (CMC)) of the same compound?
Answer: 97 % of control

Question: And the T/C (dose: 20.0 mg/kg/injection, schedule: Q01DX001 (ip), vehicle: carboxymethylcellulose (CMC))?
Answer: 97 % of control

Question: And the T/C (dose: 40.0 mg/kg/injection, schedule: Q01DX001 (ip), vehicle: carboxymethylcellulose (CMC))?
Answer: 92 % of control

Question: What about the T/C (dose: 80.0 mg/kg/injection, schedule: Q01DX001 (ip), vehicle: carboxymethylcellulose (CMC)) of the same compound?
Answer: 91 % of control

Question: What about the T/C [9] of the same compound?
Answer: 105 % of control

Question: What does the source list for `O=c1c2[nH]c3cccc(Cl)c3c2cnn1-c1ccc(F)cc1`?
Answer: T/C (dose: 100.0 mg/kg/injection, schedule: Q01DX001 (ip), vehicle: Klucel (hydroxypropylcellulose) (HPC)): 96 % of control; T/C (dose: 200.0 mg/kg/injection, schedule: Q01DX001 (ip), vehicle: Klucel (hydroxypropylcellulose) (HPC)): 104 % of control; T/C (dose: 400.0 mg/kg/injection, schedule: Q01DX001 (ip), vehicle: Klucel (hydroxypropylcellulose) (HPC)): 104 % of control

Question: Which results are given for `CN=C(NC(C)C)c1ccc(NC(=O)c2ccc(C(=O)Nc3ccc(C(=NC)NC(C)C)cc3)cc2)cc1`?
Answer: T/C (dose: 2.0 mg/kg/injection, schedule: Q01DX Z (ip), vehicle: carboxymethylcellulose (CMC)): 97 % of control; T/C (dose: 4.0 mg/kg/injection, schedule: Q01DX Z (ip), vehicle: carboxymethylcellulose (CMC)): 101 % of control; T/C (dose: 6.0 mg/kg/injection, schedule: Q01DX Z (ip), vehicle: carboxymethylcellulose (CMC)): 112 % of control; T/C (dose: 16.0 mg/kg/injection, schedule: Q01DX Z (ip), vehicle: carboxymethylcellulose (CMC)): 151 % of control; T/C (dose: 25.0 mg/kg/injection, schedule: Q01DX Z (oral), vehicle: carboxymethylcellulose (CMC)): 96 % of control; T/C (dose: 31.0 mg/kg/injection, schedule: Q01DX Z (ip), vehicle: methylcellulose (MC)): 117 % of control; T/C (dose: 50.0 mg/kg/injection, schedule: Q01DX Z (oral), vehicle: carboxymethylcellulose (CMC)): 101 % of control; T/C (dose: 62.5 mg/kg/injection, schedule: Q01DX Z (ip), vehicle: methylcellulose (MC)): 157 % of control; T/C (dose: 100.0 mg/kg/injection, schedule: Q01DX Z (oral), vehicle: carboxymethylcellulose (CMC)): 96 % of control; T/C (dose: 125.0 mg/kg/injection, schedule: Q01DX Z (ip), vehicle: methylcellulose (MC)): 157 % of control; T/C (dose: 200.0 mg/kg/injection, schedule: Q01DX Z (oral), vehicle: carboxymethylcellulose (CMC)): 101 % of control; T/C (dose: 250.0 mg/kg/injection, schedule: Q01DX Z (ip), vehicle: methylcellulose (MC)): 97 % of control

Question: With `O=C(c1ccccc1)C1C(c2ccccc2)N1CCl` (centres undefined) as the compound, how does the T/C [1] read?
Answer: 98 % of control

Question: What about the T/C [2] of the same compound?
Answer: 92 % of control

Question: And the T/C [3]?
Answer: 94 % of control

Question: What about the T/C [4] of the same compound?
Answer: 105 % of control

Question: And the T/C [5]?
Answer: 100 % of control

Question: And the T/C [6]?
Answer: 107 % of control

Question: For `COC(=O)c1c(Cl)c(Cl)c(C(=O)OC)c(Cl)c1Cl`, which T/C [10] is on record?
Answer: 91 % of control

Question: What about the T/C [11] of the same compound?
Answer: 90 % of control

Question: And the T/C [12]?
Answer: 92 % of control

Question: What about the T/C [13] of the same compound?
Answer: 90 % of control

Question: And the T/C [14]?
Answer: 92 % of control

Question: What about the T/C [15] of the same compound?
Answer: 95 % of control

Question: What does the source list for `CCOC(=O)C(CNC(N)=O)(c1ccccc1)c1ccccc1`?
Answer: T/C [16]: 93 % of control; T/C [9]: 102 % of control; T/C [17]: 87 % of control; T/C [18]: 98 % of control

Question: `CCC(CO)NC(=O)/C=C/c1ccc(Cl)cc1` (centres undefined) was tested. Which T/C [19] did it give?
Answer: 101 % of control

Question: What about the T/C [11] of the same compound?
Answer: 110 % of control

Question: And the T/C [20]?
Answer: 100 % of control

Question: What about the T/C [13] of the same compound?
Answer: 108 % of control

Question: What about the T/C [21] of the same compound?
Answer: 92 % of control

Question: And the T/C [15]?
Answer: 98 % of control

Question: How did the T/C [1] turn out when `BrC(c1ccccc1)C(Br)c1ccccc1` (centres undefined) was run?
Answer: 86 % of control

Question: And the T/C [2]?
Answer: 92 % of control

Question: What about the T/C [3] of the same compound?
Answer: 96 % of control

Question: What about the T/C [4] of the same compound?
Answer: 94 % of control

Question: What about the T/C [5] of the same compound?
Answer: 91 % of control

Question: What about the T/C [6] of the same compound?
Answer: 100 % of control

Question: How did the T/C [7] turn out when `CCOP(=O)(OCC)Oc1ccc(Sc2ccc(OP(=O)(OCC)OCC)cc2)cc1` was run?
Answer: 108 % of control

Question: Which results are given for `CCOc1ccccc1C(=O)Nc1ccc(Br)cc1`?
Answer: T/C [16]: 91 % of control; T/C [9]: 91 % of control; T/C [17]: 96 % of control; T/C [18]: 102 % of control

Question: With `NNc1nnnc2ccccc12` as the compound, how does the T/C (dose: 20.0 mg/kg/injection, schedule: Q01DX001 (ip), vehicle: Klucel (hydroxypropylcellulose) (HPC)) read?
Answer: 108 % of control

Question: What does the source list for `CN(C)c1ccc([N+](=O)[O-])c2c1CCC2`?
Answer: T/C (dose: 50.0 mg/kg/injection, schedule: Q01DX001 (ip), vehicle: saline): 111 % of control; T/C [7]: 90 % of control; T/C [8]: 106 % of control; T/C [22]: 106 % of control

Question: `O=C(NC(=S)Nc1ccc(Br)cc1)c1ccc(Cl)cc1Cl` was tested. Which T/C [19] did it give?
Answer: 92 % of control

Question: And the T/C [10]?
Answer: 97 % of control and 102 % of control

Question: And the T/C (dose: 100.0 mg/kg/injection, schedule: Q04DX002 (ip), vehicle: saline with Tween-80)?
Answer: 95 % of control and 90 % of control

Question: And the T/C [11]?
Answer: 95 % of control

Question: And the T/C [20]?
Answer: 90 % of control

Question: What about the T/C [12] of the same compound?
Answer: 97 % of control and 88 % of control

Question: What about the T/C (dose: 200.0 mg/kg/injection, schedule: Q04DX002 (ip), vehicle: saline with Tween-80) of the same compound?
Answer: 93 % of control and 101 % of control

Question: What about the T/C [13] of the same compound?
Answer: 98 % of control

Question: And the T/C [21]?
Answer: 97 % of control

Question: What about the T/C [14] of the same compound?
Answer: 97 % of control and 90 % of control

Question: And the T/C (dose: 400.0 mg/kg/injection, schedule: Q04DX002 (ip), vehicle: saline with Tween-80)?
Answer: 90 % of control and 92 % of control

Question: What about the T/C [15] of the same compound?
Answer: 93 % of control

Question: `O=C(O)c1ccc(Nc2ncnc3nc[nH]c23)cc1` was tested. Which T/C [11] did it give?
Answer: 104 % of control

Question: And the T/C [13]?
Answer: 96 % of control

Question: What about the T/C [15] of the same compound?
Answer: 102 % of control

Question: How did the T/C [9] turn out when `O=c1[nH]nnc2c1cnn2-c1ccccc1` was run?
Answer: 101 % of control

Question: What about the T/C [17] of the same compound?
Answer: 97 % of control

Question: Which results are given for `O=C1NC(=O)C(c2ccccc2)O1` (centres undefined)?
Answer: T/C [23]: 92 % of control; T/C [24]: 103 % of control; T/C [25]: 97 % of control

Question: `CC(=O)C(CCl)C(C)=O` was tested. Which T/C (dose: 50.0 mg/kg/injection, schedule: Q01DX001 (ip), vehicle: other) did it give?
Answer: 102 % of control

Question: What about the T/C [23] of the same compound?
Answer: 96 % of control

Question: And the T/C [24]?
Answer: 96 % of control

Question: And the T/C [25]?
Answer: 96 % of control

Question: What does the source list for `Cc1cn(C2CCCO2)c(=O)[nH]c1=O` (centres undefined)?
Answer: T/C [7]: 106 % of control; T/C [8]: 101 % of control; T/C [22]: 95 % of control
